Test results as given in PMC10005332, “It Takes Two to Tango, Part II: Synthesis of A-Ring Functionalised Quinones Containing Two Redox-Active Centres with Antitumour Activities” (Molecules, 2023).
Like-named read-outs stand apart in the source and are kept apart here.

How the values were obtained:
[1] = system: SNB-19 (human astrocytoma); test: MTT cytotoxicity assay, SNB-19; type: cell-based; conditions: for IC50: Homo sapiens, SNB-19, MTT, 72 h exposure, three independent experiments, read-out: Cytotoxic activity IC50 (95% CI) SNB-19; for Selectivity index SNB-19: ratio of cytotoxicity L929 / SNB-19
Procedure: (§1) In this study, the IC50 was obtained in micromolar concentrations, using the colourimetric MTT (3-(4,5-dimethylthiazol-2-yl)-2,5-diphenyl tetrazolium bromide)) assay, and doxorubicin was used as the positive control. […] The activity against the non-tumoural murine fibroblast cell line L929 was also evaluated in order to study the cytotoxicity behaviour of each compound and to understand their respective relative selectivity. The selectivity index was obtained using the ratio of measured cytotoxicity between the L929 cell line and each of the cancer cell lines, and the results are presented in Table 2.
(§2) The in vitro cytotoxicity activity of the compounds was evaluated by the colorimetric MTT (3-(4,5-dimethylthiazol-2-yl)-2,5-diphenyl tetrazolium bromide)) assay using the following tumor cell lines: HCT-116 (colon carcinoma), PC3 (prostate), SNB-19 (glioblastoma), K-562 (myelogenous leukaemia), HL-60 (human promyelocytic leukaemia), B16 (murine melanoma), A549 (human lung carcinoma), KG1 (human acute myeloid leukaemia), and RAJI (human Burkitt’s lymphoma), which were provided by the National Cancer Institute (Bethesda, MD, USA). The L929 cell line (mouse fibroblast L cells NCTC clone 929) employed in this study as a control cell line was obtained from the American Type Culture Collection (Manassas, VA, USA). The cell lines (Table S4) were maintained in flasks containing RPMI 1640 or DMEM medium supplemented with 10% bovive fetal sérum, 100 U/mL penicillin, and 100 μg/mL streptomycin at 37 °C and in 5% CO2 atmosphere. The compounds tested were dissolved in DMSO. Doxorubicin served as the positive control. Cell treatments were performed with three replicates and the cells were mycoplasma free. After 72 h incubation, 100 μL of MTT solution (0.5 mg/mL) was added to each well, and the cells were incubated for 3 h. The supernatant was removed and 100 μL of DMSO was added and the absorbance at 595 nm was measured using Victor Nivo Multimode plate reader (PerkinElmer, Waltham, MA, USA). The absorbances obtained were used to calculate the IC50 values by nonlinear regression employing appropriate statistical software.
(§3) The in vitro cytotoxicity activity of compounds was evaluated by the colorimetric MTT (3-(4,5-dimethylthiazol-2-yl)-2,5-diphenyl tetrazolium bromide)) assay using tumor cell lines: HCT-116 (colon carcinoma), PC3 (prostate), SNB-19 (glioblastoma), K-562 (myelogenous leukaemia), HL-60 (human promyelocytic leukaemia), B16 (murine melanoma), A549 (human lung carcinoma), KG1 (human acute myeloid leukaemia) and RAJI (human Burkitt's lymphoma), which were provided by the National Cancer Institute (Bethesda, MD, USA). The L929 cell line (mouse fibroblast L cells NCTC clone 929) employed in this study as a control cell line was obtained from the American Type Culture […]
(§4) Collection (Manassas, VA, USA). Cell lines (Table 01) were maintained in flasks containing RPMI 1640 or DMEM medium supplemented with 10% bovive fetal sérum, 100 U/mL penicillin, and 100 μg/mL streptomycin at 37 °C and 5% CO2 atmosphere.
(§5) Compounds tested were dissolved in DMSO. Doxorubicin served as positive control. Cell treatments were performed with three replicates and cells were mycoplasma-free. After 72 h incubation, 100 μL of MTT solution (0.5 mg/mL) was added to each well, and cells were incubated for 3 h. The supernatant was removed and 100 μL of DMSO was added and the absorbance at 595 nm was measured using Victor Nivo Multimode plate reader

[2] = system: RAJI (human Burkitt’s lymphoma); test: MTT cytotoxicity assay, RAJI; type: cell-based; conditions: for IC50: Homo sapiens, Raji, 72 h, MTT, 72 h exposure, three independent experiments, read-out: Cytotoxic activity IC50 (95% CI) RAJI; for Selectivity index RAJI: ratio of cytotoxicity L929 / RAJI
Procedure: as §1, §2, §3, §4, §5

[3] = system: A549 (human lung carcinoma); test: MTT cytotoxicity assay, A549; type: cell-based; conditions: for IC50: Homo sapiens, A549, MTT, 72 h exposure, three independent experiments, read-out: Cytotoxic activity IC50 (95% CI) A549; for Selectivity index A549: ratio of cytotoxicity L929 / A549
Procedure: as §1, §2, §3, §4, §5

[4] = MTT cytotoxicity assay, L929 control line; type: cell-based, mouse; conditions: mouse, L929 fibroblast cells (non-tumoral control line), 72 h exposure, read-out: Cytotoxic activity IC50 (95% CI) L929
Procedure: as §1, §2, §3, §4, §5

[5] = system: KG1 (human acute myeloid leukaemia); test: MTT cytotoxicity assay, KG1; type: cell-based; conditions: for IC50: Homo sapiens, MTT, 72 h exposure, three independent experiments, read-out: Cytotoxic activity IC50 (95% CI) KG1; for Selectivity index KG1: ratio of cytotoxicity L929 / KG1
Procedure: as §1, §2, §3, §4, §5

[6] = system: HCT-116 (human colorectal carcinoma); test: MTT cytotoxicity assay, HCT-116; type: cell-based; conditions: for IC50: Homo sapiens, HCT-116, 72 h, MTT, 72 h exposure, three independent experiments, read-out: Cytotoxic activity IC50 (95% CI) HCT-116; for Selectivity index HCT-116: ratio of cytotoxicity L929 / HCT-116
Procedure: as §1, §2, §3, §4, §5

[7] = system: PC3 (human prostate adenocarcinoma); test: MTT cytotoxicity assay, PC3; type: cell-based; conditions: for IC50: Homo sapiens, MTT, 72 h exposure, three independent experiments, read-out: Cytotoxic activity IC50 (95% CI) PC3; for Selectivity index PC3: ratio of cytotoxicity L929 / PC3
Procedure: as §1, §2, §3, §4, §5

B16 (murine melanoma) = test: MTT cytotoxicity assay, B16; type: cell-based; conditions: for IC50: Mus musculus, MTT, 72 h exposure, three independent experiments, read-out: Cytotoxic activity IC50 (95% CI) B16; for Selectivity index B16: ratio of cytotoxicity L929 / B16
Procedure: as §1, §2, §3, §4, §5

[8] = system: K-562 (human chronic myeloid leukaemia); test: MTT cytotoxicity assay, K-562; type: cell-based; conditions: for IC50: Homo sapiens, K562, MTT, 72 h exposure, three independent experiments, read-out: Cytotoxic activity IC50 (95% CI) K-562; for Selectivity index K-562: ratio of cytotoxicity L929 / K-562
Procedure: as §1, §2, §3, §4, §5

[9] = system: HL60 (human pro-myelocytic leukaemia); test: MTT cytotoxicity assay, HL60; type: cell-based; conditions: for IC50: MTT, 72 h exposure, three independent experiments, read-out: Cytotoxic activity IC50 (95% CI) HL60; for Selectivity index HL60: ratio of cytotoxicity L929 / HL60
Procedure: as §1, §2, §3, §4, §5

| SMILES | IC50 [1] [µM] | Selectivity index SNB-19 [1] | IC50 [2] [µM] | Selectivity index RAJI [2] | IC50 [3] [µM] | Selectivity index A549 [3] | IC50 at 72 h [4] [µM] | IC50 [5] [µM] | Selectivity index KG1 [5] | IC50 [6] [µM] | Selectivity index HCT-116 [6] | IC50 [7] [µM] | Selectivity index PC3 [7] | IC50 (B16 (murine melanoma)) [µM] | Selectivity index B16 (B16 (murine melanoma)) | IC50 [8] [µM] | Selectivity index K-562 [8] | IC50 ([9]; Homo sapiens, HL-60, 72 h) [µM] | IC50 [9] [µM] | Selectivity index HL60 [9] |
| --- | --- | --- | --- | --- | --- | --- | --- | --- | --- | --- | --- | --- | --- | --- | --- | --- | --- | --- | --- | --- |
| CC1(C)OC2=C(C(=O)C(=O)c3ccccc32)C1n1cc(CNC2=CC(=O)c3cccc(OCc4ccccc4)c3C2=O)nn1 (stereo not shown) [Compound 19d, 3-(4-(((8-benzyloxy-1,4-dioxo-1,4-dihydronaphthalen-2-yl)amino)methyl)-1H-1,2,3-triazol-1-yl)-2,2-dimethyl-2,3-dihydronaphtho[1,2-b]furan-4,5-dione] | 0.76 | 3.0 | 1.26 | 1.8 | 1.11 | 2.1 | 2.29 | 2.94 | 0.8 | 0.53 | 4.3 | 1.23 | 1.9 | 0.93 | 2.5 | 1.04 | 2.2 | 0.3 | 0.34 | 6.7 |
| CC1(C)OC2=C(C(=O)C(=O)c3ccccc32)C1n1cc(CNC2=CC(=O)c3cc4ccccc4cc3C2=O)nn1 (stereo not shown) [Compound 19e, 3-(4-(((1,4-dioxo-1,4-dihydroanthracen-2-yl)amino)methyl)-1H-1,2,3-triazol-1-yl)-2,2-dimethyl-2,3-dihydronaphtho[1,2-b]furan-4,5-dione] | 3.52 | 1.4 | 1.69 | 2.9 | 6.14 | 0.8 | 4.83 | 4.77 | 1.0 | 2.63 | 1.8 | 3.48 | 1.4 | 3.97 | 1.2 | 8.13 | 0.6 | 0.86 | – | 5.6 |
| O=C1C(=O)c2ccccc2C2=C1CC(Cn1cc(CNC3=CC(=O)c4c(I)cccc4C3=O)nn1)O2 (stereo not shown) [Compound 20a, 2-((4-(((5-iodo-1,4-dioxo-1,4-dihydronaphthalen-2-yl)amino)methyl)-1H-1,2,3-triazol-1-yl)methyl)-2,3-dihydronaphtho[1,2-b]furan-4,5-dione] | 8.5 | 0.7 | 2.8 | 2.0 | 15.3 | 0.4 | 5.59 | 25.3 | 0.2 | 5.47 | 1.0 | 9.79 | 0.6 | 4.19 | 1.3 | 5.56 | 1.0 | 2.84 | – | 2.0 |
| O=C1C(=O)c2ccccc2C2=C1CC(Cn1cc(CNC3=CC(=O)c4c(O)cccc4C3=O)nn1)O2 (stereo not shown) [Compound 20b, 2-((4-(((5-hydroxy-1,4-dioxo-1,4-dihydronaphthalen-2-yl)amino)methyl)-1H-1,2,3-triazol-1-yl)methyl)-2,3-dihydronaphtho[1,2-b]furan-4,5-dione] | 9.47 | 2.9 | 2.49 | 11.1 | 18.9 | 1.5 | 27.6 | 23.3 | 1.2 | 7.22 | 3.8 | 10.2 | 2.7 | 4.52 | 6.1 | 12.8 | 2.2 | 5 | – | 5.5 |
| COc1cccc2c1C(=O)C(NCc1cn(CC3CC4=C(O3)c3ccccc3C(=O)C4=O)nn1)=CC2=O (stereo not shown) [Compound 20c, 2-((4-(((8-methoxy-1,4-dioxo-1,4-dihydronaphthalen-2-yl)amino)methyl)-1H-1,2,3-triazol-1-yl)methyl)-2,3-dihydronaphtho[1,2-b]furan-4,5-dione] | 49.6 | 2.0 | 37 | 2.7 | 24.5 | 4.1 | > 100 | 39.4 | 2.5 | > 100 | – | > 100 | – | 44.1 | 2.3 | > 100 | – | 38.3 | – | 2.6 |
| O=C1C(=O)c2ccccc2C2=C1CC(Cn1cc(CNC3=CC(=O)c4cccc(OCc5ccccc5)c4C3=O)nn1)O2 (stereo not shown) [Compound 20d, 2-((4-(((8-benzyloxy-1,4-dioxo-1,4-dihydronaphthalen-2-yl)amino)methyl)-1H-1,2,3-triazol-1-yl)methyl)-2,3-dihydronaphtho[1,2-b]furan-4,5-dione] | 10.2 | 0.9 | 4.32 | 2.2 | 27.4 | 0.3 | 9.43 | 8.9 | 1.1 | 6.16 | 1.5 | 12.8 | 0.7 | 9.21 | 1.0 | 10.4 | 0.9 | 3.74 | – | 2.5 |
